Tests used:
[1] = tested on: neuronal cultures derived from DRG; test: pH2A.X immunoblotting in DRG neuronal cultures (Example 1); format: cell-based, rat
Protocol: (§1) Dorsal root ganglia (DRG) were dissected from all spinal levels of adult male (150-175 g) Sprague-Dawley rats (Envigo, Indianapolis, Ind.) and the cells were dissociated as previously described (Kelley et al., 2014). Briefly, the rats were euthanized by CO2 asphyxiation. DRGs were transferred into collagenase solution (1 mg/ml) and incubated for 1 hour at 37° C. The digested DRGs were then rinsed with growth medium, centrifuged and dissociated by mechanical agitation. Approximately 30,000 cells were plated into each well of 12-well culture plates. All culture dishes were precoated with poly-D-lysine and laminin. Cells were maintained in F-12 media supplemented with 10% horse serum, 2 mM glutamine, 100 μg/ml Normocin, 50 μg/ml penicillin, 50 μg/ml streptomycin, 50 μM 5-fluoro-2′-deoxyuridine, 150 μM uridine, and 30 ng/ml of NGF in 3% CO2 at 37° C. Growth medium was changed every other day.
(§2) Small interfering RNAs to APE1 (APE1siRNA) and scrambled siRNA (SCsiRNA) controls were used to decrease APE1 protein expression in sensory neuronal cell cultures and as controls, respectively, as described previously (Vasko et al., 2005, Jiang et al., 2008a). On day 3 in culture, the growth media was replaced with 0.5 ml of Opti-MEM 1 media containing 100 nM of APE1siRNA (5′-[…]-3′ (SEQ ID NO:1)) or SCsiRNA (5′-[…]-3′(SEQ ID NO:2)); (Vasko et al., 2005)) and 10 μl of the transfecting reagent, Neuroporter. On the next day, 0.5 ml of the growth media without antibiotics was added to each well, and after an additional 24 hours the media containing siRNA was replaced with normal growth media.
(§3) Lentiviral constructs containing (1) the CMV promoter, HA-tagged APE1, IRES, and enhanced green fluorescent protein (EGFP); or (2) CMV, IRES, and EGFP were developed. DNA sequencing confirmed the constructs in the pLenti6-R4R2-V5 plasmid containing WT-, C65-, or 226+177-APE1-IRES-EGFP. For lentiviral infections, DRG cells were cultured 5 days before 150 pfu/cell of the lentivirus was added to the media. Two days later, the virus was removed and the cells grown an additional 5 days in regular media.
Tissues or cells were harvested, lysed in RIPA buffer (Santa Cruz Biotechnology; Santa Cruz, Calif., USA), sonicated, and cleared of cellular debris by centrifuging at 4000 RPM for 2 minutes. Protein was quantified using Lowry assay, and electrophoresed in a 12% SDS-polyacrylamide gel. After electrophoresis, proteins were transferred to a PVDF membrane, and blocked with Tris-buffered saline containing 0.1% Tween-20 (TBST) and 5% nonfat dry milk for 1 hour at room temperature while gently agitating. Mouse monoclonal antihuman Ape1 antibodies (1:1000), mouse monoclonal anti-phospho H2AX antibodies (1:1000), mouse monoclonal anti-vinculin antibody (1:1000), and anti-Hemagglutinin (HA) antibody were added to the blocking solution and incubated for 2 hours at room temperature while gently agitating. Antibody binding was detected following appropriate secondary antibody methods using chemiluminescence. The density of the bands was measured using Quantity One software from Bio-Rad (Hercules, Calif.) and data expressed as density normalized to vinculin.

[2] = tested on: neuronal cultures derived from DRG; test: CGRP release from DRG neuronal cultures (Example 1); format: cell-based, rat; conditions: for capsaicin-stimulated release of CGRP: 24 hours
Protocol: as §1, §2, §3
After neuronal cultures were treated with the appropriate drugs, the cultures were washed once with HEPES buffer consisting of (in mM) 25 HEPES, 135 NaCl, 3.5 KCl, 2.5 CaCl2, 1 MgCl2, 3.3 D-glucose, and 0.1% bovine serum albumin, pH 7.4 and maintained at 37° C. They were then incubated for successive 10-minute intervals with 0.4 ml of HEPES buffer alone (basal release), with buffer containing 30 nM capsaicin, then with buffer alone (to assess return to basal release). After each incubation, the buffer was removed and the amount of immunoreactive CGRP in each sample was measured using radioimmunoassay as previously described (Chen et al., 1996). After the release experiment, the cells in each well were in 0.4 ml of 0.1 M HCl10 minutes and an aliquot taken to measure total CGRP content in the cultures using radioimmunoassay. Total content (fmol/well) was calculated by adding the total amount released in all incubations to the amount measured in the cells. The release data is calculated as fmol released/well/10 minutes.

[3] = tested on: NFκB; test: NF-κB luciferase reporter transactivation assay; format: cell-based; conditions: read-out: inhibition of NFκB binding to the reporter construct, IC50
Protocol: Reporter assays were performed as previously described (Georgiadis et al., 2008; Kelley et al., 2011; Cardoso et al., 2012b; Luo et al., 2012). Cells were transfected with NF-κB-Luciferase construct containing an NF-κB-response promoter and driving the expression of a luciferase gene and a Renilla luciferase control reporter vector pRL-CMV. After a 24-hour transfection period, cells were lysed, and Firefly and Renilla luciferase activities were assayed using Renilla luciferase activity for normalization. All of the transfection experiments were performed in triplicate and repeated at least three times in independent experiments. Data are expressed as mean±standard error from a representative experiment, and Student's t tests were performed.

[4] = tested on: sensory neuronal cultures; test: Neuronal cell viability (trypan blue exclusion); format: cell-based
Protocol: (§4) Primary cultures of sensory neurons were harvested and maintained as previously described (Vasko et al., 2005). Briefly, adult male Sprague-Dawley rats (150-175 g; Harlan, Indianapolis, Ind.) were euthanized by CO2 asphyxiation and dorsal root ganglia (DRG) dissected from all spinal levels, transferred to into a collagenase solution (1 mg/ml), incubated for 1 hour at 37° C., then dissociated by mechanical agitation. Approximately 30,000 cells or 60,000 cells were plated into each well of 12-well or 6-well culture plates, respectively. All culture dishes were precoated with poly-D-lysine and laminin. Cells were maintained in F-12 media supplemented with 10% horse serum, 2 mM glutamine, 100 μg/ml Normocin™, 50 μg/ml penicillin, 50 μg/ml streptomycin, 50 μM 5-fluoro-2′-deoxyuridine (Invitrogen), 150 μM uridine, and 30 ng/ml of NGF in 3% CO2 at 37° C. Growth medium was changed every other day. Experiments were performed after cells were maintained in culture for 12-14 days.
Sensory neuronal culture trypan blue exclusion analysis was performed as previously described (Vasko et al., 2011). Cells were detached by adding a 0.05% trypsin-EDTA solution and media to each well. An equal volume of 0.4% (w/v) trypan blue in PBS was added to the cell suspension and the numbers of living cells (i.e., those that exclude the dye) were counted under a phase contrast microscope using a hemacytometer. Percent survival was calculated as the percent of live cells divided by the total cell number (including dead and live cells).

[5] = target: T1, APE1 (Homo sapiens, UniProt P27695); test: AP endonuclease DNA repair assay; format: biochemical; conditions: APX2009 in the nanomolar range
T1 sequence (P27695 whole entry, species assumed): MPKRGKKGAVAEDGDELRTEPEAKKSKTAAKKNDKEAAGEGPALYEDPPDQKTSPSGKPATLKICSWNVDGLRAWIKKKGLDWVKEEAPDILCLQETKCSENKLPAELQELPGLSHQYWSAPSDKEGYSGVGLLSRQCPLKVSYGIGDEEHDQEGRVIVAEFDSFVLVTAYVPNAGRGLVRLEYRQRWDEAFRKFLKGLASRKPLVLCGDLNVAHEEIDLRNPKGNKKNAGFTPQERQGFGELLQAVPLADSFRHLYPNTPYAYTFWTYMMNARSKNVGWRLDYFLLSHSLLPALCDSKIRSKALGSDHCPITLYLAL
Protocol: Inhibition or enhancement of APE1 DNA repair endonuclease activity was performed as previously described (Bapat et al., 2010). The APE1 repair activity assay was performed in a plate assay using two annealed oligonucleotides (5′-6-FAM-GCCCCC*[…]-3′ (SEQ ID NO:3) and 3′-Q-[…]-5′ (SEQ ID NO:4)) containing a quencher on one strand and a fluorescent 6-FAM label with tetrahydrofuran as an AP site mimic. Oligo cleavage at the AP mimic site results in 6-FAM release and detection. The fluorescence was read at five, one-minute intervals using a Tecan Ultra plate reader (Chemical Genomics Core, Indiana University School of Medicine). The rate of the reaction was used to determine the change in APE1 repair activity as compared to the vehicle control.

[6] = tested on: sensory neurons in culture; format: cell-based, rat
Protocol: as §4
For release experiments, cell cultures were washed with HEPES buffer consisting of (in mM) 25 HEPES, 135 NaCl, 3.5 KCl, 2.5 CaCl2, 1 MgCl2, 3.3 D-glucose, and 0.1% bovine serum albumin, pH 7.4 and maintained at 37° C. They then were incubated for successive 10-minute intervals with 0.4 ml of HEPES buffer alone (basal release), with buffer containing 30 nM capsaicin, then with buffer alone (to assess return to basal release). After each incubation, the buffer was removed and the amount of immunoreactive calcitonin-gene related peptide (CGRP) in each sample was measured using radioimmunoassay (RIA) as previously described (Chen et al., 1996). At the end of the release protocol, CGRP is extracted from the cultures and total content measured using RIA.

[7] = tested on: sensory neuronal cultures; test: phospho-H2AX immunoblotting in sensory neuronal cultures (Example 3); format: cell-based, rat
Protocol: as §4
Immunoblotting was performed as previously described (Kelley et al., 2014). Briefly, cells were lysed in RIPA buffer (Santa Cruz Biotechnology; Santa Cruz, Calif., USA) and protein was quantified using the Lowey assay. Proteins were separated by electrophoresis on a 4-12% SDS-polyacrylamide gel. The gel was transferred to a PVDF membrane and incubated overnight at 4° C. in Tris-buffered saline containing 0.1% Tween-20 (TBST) and 5% nonfat dry milk while gently agitating. Mouse monoclonal antihuman Ape1 antibodies (1:500), mouse monoclonal anti-phospho H2AX antibodies (1:1000), or (3-Actin monoclonal antibody (1:1000) were added to the blocking solution and incubated overnight at room temperature while gently agitating. Antibody binding was detected following appropriate secondary antibody methods using chemiluminescence. The density of the bands was measured using QUALITYONE® software from Bio-Rad (Hercules, Calif.) and data expressed as density normalized to actin.

[8] = target: T1, APE1; test: redox APE1 electrophoretic mobility shift assay (EMSA); format: biochemical; parameters: Purified APE1 was reduced with 1.0 mM DTT for 10 minutes; conditions: read-out: redox inhibition IC50
Protocol: EMSAs were performed as described (Luo et al., 2012). Purified APE1 was reduced with 1.0 mM DTT for 10 minutes and diluted to a final concentration of 0.006 mM with 0.02 mM DTT in PBS. Reduced APE1 was added to EMSA reaction buffer (10 mM Tris (pH 7.5), 50 mM NaCl, 1 mM MgCl2, 1 mM EDTA, 5% [vol/vol] glycerol) with […] 0.007 mM protein mixture (1:1) of purified truncated c-Jun and c-Fos proteins containing DNA-binding domain and leucine zipper and incubated for 30 minutes at room temperature. The EMSA assay was performed as previously described (Luo et al., 2008; Nyland et al., 2010; Kelley et al., 2011; Luo et al., 2012).

## MCP-1: Recombinant rat CCL2/MCP-1 protein
[1]; LPS 1 μg/ml, MCP-1 100 ng/ml
  levels of pH2A.X over time: induced pH2A.X expression
  onset of pH2A.X increase: 16 hours
  peak of pH2A.X increase: 24 hours
[1]; SCsiRNA-treated cultures, 24 hours, LPS 3 μg/ml, MCP-1 0.3 μg/ml
  pH2A.X expression: enhanced expression of pH2A.X
[2]; 0.3 μg/ml MCP-1, 24 hours
  CGRP release relative to the release in the absence of MCP-1: 142.8%
[2]; 0.3 μg/ml
  capsaicin-stimulated release of CGRP: 13.0±0.8 % of total content
[2]; 1.0 μg/ml
  capsaicin-stimulated release of CGRP: 15.0±1.0 % of total content
[2]; 10.0 μg/ml
  capsaicin-stimulated release of CGRP: 6.3±1.0 % of total content
[2]; APE1siRNA-treated cultures, MCP-1 0.3 μg/ml
  release of CGRP stimulated by capsaicin: caused a decrease in CGRP release
[2]; SCsiRNA-treated cultures, MCP-1 0.3 μg/ml
  release of CGRP stimulated by capsaicin: enhanced the release of CGRP
[2]; data not shown
  total content of CGRP compared with vehicle: similar

## COC1=C(/C=C(\C)C(=O)N(C)C)C(=O)c2ccccc2C1=O [APX2032]
[3]
  IC50: 7 µM
[4]; 20 μM for 48 hours prior to and throughout the cisplatin treatment (24 hours)
  effect on cisplatin-induced cell death: did not attenuate the cisplatin-induced cell death
[4]; 20 μM or 40 μM, 24 hours
  cell viability, drug alone: significant reduction in cell viability
[4]; 20 or 40 μM, 72 hours (data not shown)
  cell death, drug alone: significant increase in cell death
[5]
  APE1 repair (endonuclease) activity: no effect
[6]; 10 μM, 72 hour treatment, 10 μM cisplatin
  effect on cisplatin-induced reduction in capsaicin-evoked CGRP release: did block the effect of cisplatin
[6]; 10 μM, 72 hours
  CGRP release, drug alone: did not affect CGRP release
[6]; 20 μM, 72 hours
  capsaicin-stimulated release of CGRP, drug alone: significant increase in capsaicin-stimulated release
[7]; 20 μM for 48 hours prior to and throughout exposure to 10 μM cisplatin
  effect on cisplatin-induced pH2AX levels (DNA damage): neither APX2007 nor APX2032 (20 μM) altered the ability of cisplatin to produce DNA damage
[8]
  IC50: 1 µM

## N.N.[Cl][Pt][Cl] [cisplatin, reference compound]
[7]; 10 μM cisplatin for 24 or 48 hours
  levels of pH2AX: significant increase in the levels of pH2AX

## COc1cc(CNC(=O)CCCC/C=C/C(C)C)ccc1O [capsaicin]
[2]; 30 nM capsaicin, 10-minute period, no inflammatory mediator
  release of CGRP stimulated by capsaicin: approximately 10 % of the total content

## Cc1ccc2c(c1)C1(CCN(CCc3nc(-c4ccccc4)oc3C)CC1)OC(=O)N2 [RS 50493]
[1]; 0.3 μg/ml MCP-1 24 hr, RS 50493 1 μM
  pH2A.X expression relative to the expression elicited by MCP-1 alone: 8.5%
[1]; 3.0 μg/ml LPS 24 hr, LPS-RS 2 μg/ml, RS 50493 1 μM, from 1 hour prior
  reduction of LPS-induced increase in pH2A.X expression: 92.5 % reduction
[2]; 0.3 μg/ml MCP-1, RS 50493 1 μM
  effect on MCP-1-induced augmentation of CGRP release: prevented
[2]; 3.0 μg/ml LPS, LPS-RS 2 μg/ml, RS 50493 1 μM
  effect on LPS-induced decrease in CGRP release: blocked the decrease in release induced by LPS

From patent US11351130B2, “Prevention and reversal of inflammation induced DNA damage” (Indiana University Research and Technology Corporation, priority 2017, dated 2022)
